Patent US11833211B2, “Methods of suppression and treatment of disease comprising administering bicycle peptide ligands specific for EphA2” (BicycleTx Limited, priority 2017, dated 2023)

How the values were obtained:
human EphA2 = molecular target: T1, human EphA2 (Homo sapiens, UniProt P29317); assay: Fluorescence polarisation competition binding assay (Study 1)
T1 construct: EphA2 (Ecto); polyHis (C); purchased R&D systems (or In-house)

PC-3 xenograft = assay: Study 8: in vivo efficacy in PC-3 xenograft; set-up: species or system Mus Musculus; conditions: 15 mg/kg
mouse EphA2 = molecular target: T2, mouse EphA2 (Mus musculus, UniProt Q03145); format: binding
T2 construct: EphA2 (Ecto)
T2 sequence (Q03145 26-538 limits assumed): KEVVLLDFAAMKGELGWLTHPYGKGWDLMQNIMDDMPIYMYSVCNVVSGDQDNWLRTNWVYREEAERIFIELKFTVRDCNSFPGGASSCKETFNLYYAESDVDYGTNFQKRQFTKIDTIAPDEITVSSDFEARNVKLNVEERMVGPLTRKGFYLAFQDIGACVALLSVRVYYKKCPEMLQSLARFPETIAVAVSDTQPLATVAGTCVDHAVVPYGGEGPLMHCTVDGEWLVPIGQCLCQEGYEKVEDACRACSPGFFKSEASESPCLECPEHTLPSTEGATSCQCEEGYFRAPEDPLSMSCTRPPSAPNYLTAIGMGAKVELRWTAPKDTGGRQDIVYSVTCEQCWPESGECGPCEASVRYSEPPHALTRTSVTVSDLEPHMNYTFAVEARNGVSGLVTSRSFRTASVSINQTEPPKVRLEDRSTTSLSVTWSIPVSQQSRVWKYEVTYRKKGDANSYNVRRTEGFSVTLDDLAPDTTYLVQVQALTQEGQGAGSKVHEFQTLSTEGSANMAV

rat EphA2 = molecular target: T3, rat EphA2 (Rattus norvegicus, UniProt D3ZBN3); assay: Fluorescence polarisation competition binding, alternative protocol (Study 2)
T3 construct: polyHis (C); made in house
T3 sequence (D3ZBN3 27-205): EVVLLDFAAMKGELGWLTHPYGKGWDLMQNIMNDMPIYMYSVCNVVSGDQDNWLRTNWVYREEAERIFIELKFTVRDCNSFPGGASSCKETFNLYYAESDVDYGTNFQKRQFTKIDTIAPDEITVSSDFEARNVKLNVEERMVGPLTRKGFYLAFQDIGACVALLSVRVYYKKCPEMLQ

T1 sequence (P29317 24-537 limits assumed): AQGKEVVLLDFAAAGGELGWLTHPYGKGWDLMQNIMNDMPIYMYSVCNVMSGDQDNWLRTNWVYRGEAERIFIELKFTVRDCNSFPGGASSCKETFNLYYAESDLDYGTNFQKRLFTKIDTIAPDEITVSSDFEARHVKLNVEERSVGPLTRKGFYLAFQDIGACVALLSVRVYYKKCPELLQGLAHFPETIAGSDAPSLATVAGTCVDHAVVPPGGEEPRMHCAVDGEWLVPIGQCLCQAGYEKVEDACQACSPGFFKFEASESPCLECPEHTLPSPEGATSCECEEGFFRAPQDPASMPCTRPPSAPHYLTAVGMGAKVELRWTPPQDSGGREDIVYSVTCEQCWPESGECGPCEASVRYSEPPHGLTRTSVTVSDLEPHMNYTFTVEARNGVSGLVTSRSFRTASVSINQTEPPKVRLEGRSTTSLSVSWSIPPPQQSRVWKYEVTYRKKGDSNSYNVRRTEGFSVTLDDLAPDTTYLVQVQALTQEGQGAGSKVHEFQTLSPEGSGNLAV

## COc1cc2cc(c1Cl)N(C)C(=O)C[C@@H](OC(=O)[C@@H](C)N(C)C(=O)CCSSC(C)CCC(=O)NCCC(=O)N(C)CC(=O)N(C)CC(=O)N(C)CC(=O)N(C)CC(=O)N(C)CC(=O)N(C)CC(=O)N(C)CC(=O)N(C)CC(=O)N(C)CC(=O)N(C)CC(=O)N[C@@H](C)C(=O)N[C@@H](CCCCNC(=N)N)C(=O)N[C@@H](CC(=O)O)C(=O)N[C@H]1CSCCC(=O)N3CN4CN(C3)C(=O)CCSC[C@H](NC(=O)[C@H](CC(C)C)NC(=O)[C@@H]3CCCN3C(=O)[C@H](CC(N)=O)NC(=O)[C@H](C(C)C)NC(=O)[C@H](CC(C)C)NC(=O)[C@@H]3C[C@@H](O)CN3C1=O)C(=O)N[C@@H](CC(C)C)C(=O)N[C@@H](Cc1c[nH]cn1)C(=O)N1CCC[C@H]1C(=O)N[C@H](CC(=O)O)C(=O)N[C@@H](Cc1c[nH]c3ccccc13)C(=O)N[C@@H](CCCCNC(=N)N)C(=O)N[C@H](C(N)=O)CSCCC4=O)[C@@]1(C)O[C@@H]1[C@@H](C)[C@H]1C[C@](O)(NC(=O)O1)C(OC)/C=C/C=C(\C)C2 (stereo partly drawn) [BCY6028]
Human EphA2
  competition binding in the EphA2 competition binding assay (in words): excellent competition binding

## CC(=O)O[C@@]12CO[C@@H]1C[C@H](O)[C@@]1(C)C(=O)[C@H](O)C3=C(C)[C@@H](OC(=O)[C@H](O)[C@@H](NC(=O)OC(C)(C)C)c4ccccc4)C[C@@](O)([C@@H](OC(=O)c4ccccc4)[C@H]21)C3(C)C [Docetaxel]
PC-3 xenograft; after the first dosing
  body weight: severe animal body weight loss
PC-3 xenograft; qw
  anti-tumor activity (in words): significant anti-tumor activity
  tumor relapse after ceasing the treatment: obvious tumor relapse

## (β-Ala)-Sar10-A(HArg)D-Ci(HyP)LVNPLCiiLHP(D-Asp)W(HArg)Ciii [BCY6099]
Mouse EphA2
  affinity to mouse EphA2 (in words): high affinity
Rat EphA2
  affinity to rat EphA2 (in words): high affinity
